For three compounds, IC50 results are on record in BindingDB's records for PubMed 26907156 (n/a, 2016).

The assay addresses CDK2/Cyclin E. As to the kind of experiment: Inhibition of CDK2/Cyclin E (unknown origin) using histone as substrate incubated for 30 mins in presence of gamma[33P]ATP by digital imaging analysis.

Molecules are shown by their SMILES.

For orientation: IC50 means the concentration at which inhibition is half-maximal.

As to `CC(C)n1cnc2c(NCc3cc(Cl)ccc3O)nc(NCCC(C)(C)O)nc21`, the IC50 was 20 nM.
As to `CCC(CO)Nc1nc(NCc2cc(C)ccc2O)c2ncn(C(C)C)c2n1` (stereo not drawn), the IC50 turned out to be 20 nM.
As for `COc1cccc(CNc2nc(NC3CCCCC3N)nc3c2ncn3C(C)C)c1O` (stereo not drawn), the figure is 20 nM.
